# Test system: production of CD69 by B lymphocytes in human whole blood
# Assay: CD69 Whole Blood Assay (CD69 Hu Blood FACS)
# Type: cell-based
# Settings: human whole blood activated with goat F(ab')2 anti-human IgM, 20 hours; CD69 on CD20 positive cells by FACS; Table 1
# From the text: A CD69 Whole Blood Assay can be conducted on Formula I compounds to determine the ability of compounds to inhibit the production of CD69 by B lymphocytes in human whole blood activated by crosslinking surface IgM with goat F(ab′)2 anti-human IgM (Example 907). CD69 is a type II C-type lectin involved in lymphocyte migration and cytokine secretion. CD69 expression represents one of the earliest available indicators of leukocyte activation and its rapid induction occurs through transcriptional activation (Vazquez et al (2009) Jour. of Immunology Published Oct. 19, 2009, doi:10.4049/jimmunol.0900839). Concentration-dependent inhibition of antigen receptor stimulation by selective Btk inhibitors induces cell surface expression of the lymphocyte activation marker CD69 (Honigberg et al (2010) Proc. Natl. Acad. Sci. 107(29):13075-13080). Thus, CD69 inhibition by selective Btk inhibitors may be correlated with therapeutic efficacy of certain B-cell disorders.
# Human blood is obtained from healthy volunteers, with the following restrictions: 1 week drug-free, non-smokers. Blood (approximately 20 mls to test 8 compounds) is collected by venipuncture into Vacutainer® (Becton, Dickinson and Co.) tubes with sodium heparin.
# Solutions of Formula I and II compounds at 10 mM in DMSO are diluted 1:10 in 100% DMSO, then are diluted by three-fold serial dilutions in 100% DMSO for a ten point dose-response curve. The compounds are further diluted 1:10 in PBS and then an aliquot of 5.5 μl of each compound is added in duplicate to a 2 ml 96-well plate; 5.5 μl of 10% DMSO in PBS is added as control and no-stimulus wells. Human whole blood —HWB (100 μl) is added to each well. After mixing the plates are incubated at 37° C., 5% CO2, 100% humidity for 30 minutes. Goat F(ab′)2 anti-human IgM (10 μl of a 500 μg/ml solution, 50 μg/ml final) is added to each well (except the no-stimulus wells) with mixing and the plates are incubated for an additional 20 hours. At the end of the 20 hour incubation, samples are incubated with fluorescent labeled antibodies for 30 minutes, at 37° C., 5% CO2, 100% humidity. Include induced control, unstained and single stains for compensation adjustments and initial voltage settings. Samples are then lysed with PharM Lyse™ (BD Biosciences Pharmingen) according to the manufacturer's instructions. Samples are then transferred to a 96 well plate suitable to be run on the BD Biosciences HTS 96 well system on the LSRII machine. Data acquired and Mean Fluorescence Intensity values were obtained using BD Biosciences DIVA Software. Results are initially analyzed by FACS analysis software (Flow Jo). […] The inhibitory concentration (IC50, IC70, IC90) values are calculated by Prism version 5, using a nonlinear regression curve fit.
row,Structure (SMILES),CD69 Hu Blood FACS (IC70)
1,"C[C@H]1CN(C2COC2)CCN1c1ccc(Nc2cc(-c3ccnc(-n4ncc5cc(C(C)(C)C)cc(F)c5c4=O)c3CO)cn(C)c2=O)nc1 [Compound 105, (S)-6-tert-butyl-8-fluoro-2-(3-(hydroxymethyl)-4-(1-methyl-5-(5-(2-methyl-4-(oxetan-3-yl)piperazin-1-yl)pyridin-2-ylamino)-6-oxo-1,6-dihydropyridin-3-yl)pyridin-2-yl)phthalazin-1(2H)-one]",6 nM
2,"C[C@H]1CN(C2COC2)CCN1c1ccc(Nc2cc(-c3cncc(-n4ncc5cc(C(C)(C)C)cc(F)c5c4=O)c3CO)cn(C)c2=O)nc1 [Compound 109, (S)-6-tert-butyl-8-fluoro-2-(4-(hydroxymethyl)-5-(1-methyl-5-(5-(2-methyl-4-(oxetan-3-yl)piperazin-1-yl)pyridin-2-ylamino)-6-oxo-1,6-dihydropyridin-3-yl)pyridin-3-yl)phthalazin-1(2H)-one]",12 nM

# Same assay, conditions: human whole blood activated with goat F(ab')2 anti-human IgM, 20 hours; CD69 on CD20 positive cells by FACS; Table 2
row,Structure (SMILES),CD69 Hu Blood FACS (IC70)
1,"CN1CCn2nc(Nc3cc(-c4ccnc(-n5ncc6cc(C(C)(C)C)cc(F)c6c5=O)c4CO)nn(C)c3=O)cc2C1 [Compound 153, 6-tert-butyl-8-fluoro-2-[3-(hydroxymethyl)-4-[1-methyl-5-[(5-methyl-6,7-dihydro-4H-pyrazolo[1,5-a]pyrazin-2-yl)amino]-6-oxo-pyridazin-3-yl]-2-pyridyl]phthalazin-1-one]",59.6 nM
2,"Cc1cc(Nc2cc(-c3ccnc(-n4ncc5cc(C(C)(C)C)cc(F)c5c4=O)c3CO)nn(C)c2=O)nn1C [Compound 127, 6-tert-butyl-2-[4-[5-[(1,5-dimethylpyrazol-3-yl)amino]-1-methyl-6-oxo-pyridazin-3-yl]-3-(hydroxymethyl)-2-pyridyl]-8-fluoro-phthalazin-1-one]",115 nM
3,"Cn1cnc(Nc2cc(-c3ccnc(-n4ncc5cc(C(C)(C)C)cc(F)c5c4=O)c3CO)cn(C)c2=O)c1 [Compound 130, 6-tert-butyl-8-fluoro-2-[3-(hydroxymethyl)-4-[1-methyl-5-[(1-methylimidazol-4-yl)amino]-6-oxo-3-pyridyl]-2-pyridyl]phthalazin-1-one]",152 nM
4,"Cn1nc(-c2ccnc(-n3ncc4cc(C(C)(C)C)cc(F)c4c3=O)c2CO)cc(Nc2ccc(C(=O)N3CCOCC3)cn2)c1=O [Compound 116, 6-tert-butyl-8-fluoro-2-[3-(hydroxymethyl)-4-[1-methyl-5-[[5-(morpholine-4-carbonyl)-2-pyridyl]amino]-6-oxo-pyridazin-3-yl]-2-pyridyl]phthalazin-1-one]",93.5 nM
5,"Cn1cc(-c2ccnc(-n3ncc4cc(C(C)(C)C)cc(F)c4c3=O)c2CO)cc(Nc2cnn(C(F)F)n2)c1=O [Compound 159, 6-tert-butyl-2-[4-[5-[[2-(difluoromethyl)triazol-4-yl]amino]-1-methyl-6-oxo-3-pyridyl]-3-(hydroxymethyl)-2-pyridyl]-8-fluoro-phthalazin-1-one]",208 nM
6,"CC1OCCn2nc(Nc3cc(-c4ccnc(-n5ncc6cc(C(C)(C)C)cc(F)c6c5=O)c4CO)cn(C)c3=O)cc21 (stereo not shown) [Compound 150, 6-tert-butyl-8-fluoro-2-[3-(hydroxymethyl)-4-[1-methyl-5-[(4-methyl-6,7-dihydro-4H-pyrazolo[5,1-c][1,4]oxazin-2-yl)amino]-6-oxo-3-pyridyl]-2-pyridyl]phthalazin-1-one]",42.8 nM
7,"Cn1cc(Nc2cc(-c3ccnc(-n4ncc5cc(C(C)(C)C)cc(F)c5c4=O)c3CO)cn(C)c2=O)nn1 [Compound 149, 6-tert-butyl-8-fluoro-2-[3-(hydroxymethyl)-4-[1-methyl-5-[(1-methyltriazol-4-yl)amino]-6-oxo-3-pyridyl]-2-pyridyl]phthalazin-1-one]",93 nM
8,"C[C@@H]1COCCN1C(=O)c1ccc(Nc2cc(-c3ccnc(-n4ncc5cc(C(C)(C)C)cc(F)c5c4=O)c3CO)cn(C)c2=O)nc1 [Compound 132, 6-tert-butyl-8-fluoro-2-[3-(hydroxymethyl)-4-[1-methyl-5-[[5-[(3R)-3-methylmorpholine-4-carbonyl]-2-pyridyl]amino]-6-oxo-3-pyridyl]-2-pyridyl]phthalazin-1-one]",14 nM
9,"Cc1cc(Nc2cc(-c3ccnc(-n4ncc5cc(C(C)(C)C)cc(F)c5c4=O)c3CO)nn(C)c2=O)no1 [Compound 141, 6-tert-butyl-8-fluoro-2-[3-(hydroxymethyl)-4-[1-methyl-5-[(5-methylisoxazol-3-yl)amino]-6-oxo-pyridazin-3-yl]-2-pyridyl]phthalazin-1-one]",295 nM
10,"Cn1ccc(Nc2cc(-c3ccnc(-n4ncc5cc(C(C)(C)C)cc(F)c5c4=O)c3CO)cn(C)c2=O)n1 [Compound 140, 6-tert-butyl-8-fluoro-2-[3-(hydroxymethyl)-4-[1-methyl-5-[(1-methylpyrazol-3-yl)amino]-6-oxo-3-pyridyl]-2-pyridyl]phthalazin-1-one]",68 nM
11,"Cn1cc(-c2ccnc(-n3ncc4cc(C(C)(C)C)cc(F)c4c3=O)c2CO)cc(Nc2cc[nH]n2)c1=O [Compound 152, 6-tert-butyl-8-fluoro-2-[3-(hydroxymethyl)-4-[1-methyl-6-oxo-5-(1H-pyrazol-3-ylamino)-3-pyridyl]-2-pyridyl]phthalazin-1-one]",45.9 nM
12,"Cn1cc(-c2ccnc(-n3ncc4cc(C(C)(C)C)cc(F)c4c3=O)c2CO)cc(Nc2cc3n(n2)CCN(CC(F)F)C3)c1=O [Compound 135, 6-tert-butyl-2-[4-[5-[[5-(2,2-difluoroethyl)-6,7-dihydro-4H-pyrazolo[1,5-a]pyrazin-2-yl]amino]-1-methyl-6-oxo-3-pyridyl]-3-(hydroxymethyl)-2-pyridyl]-8-fluoro-phthalazin-1-one]",20 nM
13,"Cn1cc(-c2ccnc(-n3ncc4cc(C(C)(C)C)cc(F)c4c3=O)c2CO)cc(Nc2cnccn2)c1=O [Compound 160, 6-tert-butyl-8-fluoro-2-[3-(hydroxymethyl)-4-[1-methyl-6-oxo-5-(pyrazin-2-ylamino)-3-pyridyl]-2-pyridyl]phthalazin-1-one]",116 nM
14,"Cn1nc(-c2ccnc(-n3ncc4cc(C(C)(C)C)cc(F)c4c3=O)c2CO)cc(Nc2cc3n(n2)CCN(C2COC2)C3)c1=O [Compound 155, 6-tert-butyl-8-fluoro-2-[3-(hydroxymethyl)-4-[1-methyl-5-[[5-(oxetan-3-yl)-6,7-dihydro-4H-pyrazolo[1,5-a]pyrazin-2-yl]amino]-6-oxo-pyridazin-3-yl]-2-pyridyl]phthalazin-1-one]",26.6 nM

# Reference: US8669251B2, “8-fluorophthalazin-1(2H)-one compounds” (Genentech, Inc., priority 2011, dated 2014)
